From patent US20170334899A1, “AMINO-SUBSTITUTED ISOTHIAZOLES” (Bayer Pharma Aktiengesellschaft, priority 2014, published 2017)

How the values were obtained:
[1] = tested on: human cervical tumor cell line HeLa (ATCC CCL-2); assay: SAC-Formation - Paclitaxel-Induced Assay; type: cell-based; settings: Homo sapiens, HeLa, 24 h, HeLa cells, paclitaxel 0.05 μM, test range 0.005 μM-20 μM, read-out: IC50 [mol/l] SAC-Formation - Paclitaxel-Induced Assay
Method in brief: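 HeLa cells incubated overnight at 37° C, then given paclitaxel (0.05 μM final) plus test compound (0.005–20 μM, 0.5% DMSO) together for 24 h at 37° C. Fixed cells stained for phospho-histone H3 Ser10 (mitotic cells) and Hoechst 33342 (cell count); imaging-derived mitotic index fitted by four-parameter Hill equation.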

[2] = tested on: human cervical tumor cell line HeLa (ATCC CCL-2); assay: SAC-Formation - Nocodazole-Induced Assay; type: cell-based; settings: Homo sapiens, HeLa, 24 h, HeLa cells, nocodazole 0.1 μg/ml together with test compound, decrease of mitotic cells (phospho-histone H3 Ser10)
Method in brief: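 HeLa cells, plated overnight, were treated 24 h at 37 °C with nocodazole (0.1 μg/ml final) plus test compound (0.005–20 μM, 0.5% DMSO) added at the same time. After fixation, anti-phospho-histone H3 Ser10 and Hoechst staining gave the mitotic cell fraction by imaging. Values came from four-parameter Hill fits.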

`Cc1nsc(Nc2cncc(C(F)(F)F)n2)c1C(=O)Nc1ccc(OCCCNC(=O)OC(C)(C)C)nc1` [Example 190, tert-butyl {3-[(5-{[(3-methyl-5-{[6-(trifluoromethyl)pyrazin-2-yl]amino}-1,2-thiazoL-4-yl)carbonyl]amino}pyridin-2-yl)oxy]propyl}carbamate] showed an IC50 [1] of 89 nM and an IC50 [2] of 75 nM.

With `Cc1nsc(Nc2cncc(C(F)(F)F)n2)c1C(=O)Nc1ccc(OCCNC(=O)OC(C)(C)C)nc1` [Example 191, tert-butyl {2-[(5-{[(3-methyl-5-{[6-(trifluoromethyl)pyrazin-2-yl]amino}-1,2-thiazol-4-yl)carbonyl]amino}pyridin-2-yl)oxy]ethyl}carbamate] the IC50 [1] was 37 nM and the IC50 [2] was 59 nM.

`Cc1nsc(Nc2cnc(C(F)(F)F)cn2)c1C(=O)Nc1ccc(OCCNC(=O)OC(C)(C)C)nc1` [Example 192, tert-butyl {2-[(5-{[(3-methyl-5-{[5-(trifluoromethyl)pyrazin-2-yl]amino}-1,2-thiazol-4-yl)carbonyl]amino}pyridin-2-yl)oxy]ethyl}carbamate] was tested, and the IC50 [1] was 180 nM and the IC50 [2] was 37 nM.

`Cc1nsc(Nc2cncc(C(F)(F)F)n2)c1C(=O)Nc1ccc(C(=O)OC(C)(C)C)cc1` [Example 193, tert-butyl tert-butyl 4-{[(3-methyl-5-{[6-(trifluoromethyl)pyrazin-2-yl]amino}-1,2-thiazol-4-yl)carbonyl]amino}benzoate] showed an IC50 [1] of 510 nM and an IC50 [2] of 470 nM.

`Cc1nsc(Nc2cncc(C(F)(F)F)n2)c1C(=O)Nc1cccc(S(C)(=O)=O)c1` [Example 194, 3-methyl-N-[3-(methylsulfonyl)phenyl]-5-{[6-(trifluoromethyl)pyrazin-2-yl]amino}-1,2-thiazole-4-carboxamide] showed an IC50 [1] of 290 nM and an IC50 [2] of 230 nM.

For `Cc1nsc(Nc2cnc(C(F)(F)F)cn2)c1C(=O)Nc1cccc(S(C)(=O)=O)c1` [Example 195, 3-methyl-N-[3-(methylsulfonyl)phenyl]-5-{[5-(trifluoromethyl)pyrazin-2-yl]amino}-1,2-thiazole-4-carboxamide], the IC50 [1] was 520 nM and the IC50 [2] was 660 nM.

With `Cc1nsc(Nc2cncc(C(F)(F)F)n2)c1C(=O)Nc1ccc(OCCN)nc1` [Example 196, N-[6-(2-aminoethoxy)pyridin-3-yl]-3-methyl-5-{[6-(trifluoromethyl)pyrazin-2-yl]amino}-1,2-thiazole-4-carboxamide] the IC50 [1] was 1300 nM and the IC50 [2] was 1300 nM.

Compound `Cc1nsc(Nc2cnc(C(F)(F)F)cn2)c1C(=O)Nc1ccc(OCCN)nc1` [Example 197, N-[6-(2-aminoethoxy)pyridin-3-yl]-3-methyl-5-{[5-(trifluoromethyl)pyrazin-2-yl]amino}-1,2-thiazole-4-carboxamide] has an IC50 [1] of 600 nM and an IC50 [2] of 1000 nM.

With `Cc1nsc(Nc2cnc3ccccc3n2)c1C(=O)Nc1ccc(OCCC(=O)OC(C)(C)C)nc1` [Example 198, tert-butyl 3-{[5-({[3-methyl-5-(quinoxalin-2-ylamino)-1,2-thiazol-4-yl]carbonyl}amino)pyridin-2-yl]oxy}propanoate] the IC50 [1] was 740 nM and the IC50 [2] was 1000 nM.

For `Cc1nsc(Nc2ccc(C#N)cn2)c1C(=O)Nc1ccc(OCCC(=O)OC(C)(C)C)nc1` [Example 199, tert-butyl 3-({5-[({5-[(5-cyanopyridin-2-yl)amino]-3-methyl-1,2-thiazol-4-yl}carbonyl)amino]pyridin-2-yl}oxy)propanoate], the IC50 [1] was 110 nM and the IC50 [2] was 950 nM.

For `Cc1nsc(Nc2cc(C#N)ccn2)c1C(=O)Nc1ccc(OCCC(=O)OC(C)(C)C)nc1` [Example 200, tert-butyl 3-({5-[({5-[(4-cyanopyridin-2-yl)amino]-3-methyl-1,2-thiazol-4-yl}carbonyl)amino]pyridin-2-yl}oxy)propanoate], the IC50 [1] was 1200 nM and the IC50 [2] was 460 nM.

`Cc1nsc(Nc2cnc3ccccc3n2)c1C(=O)Nc1ccc(C(N)=O)c(F)c1` [Example 201, N-(4-carbamoyl-3-fluorophenyl)-3-methyl-5-(quinoxalin-2-ylamino)-1,2-thiazole-4-carboxamide] showed an IC50 [1] of 220 nM and an IC50 [2] of 520 nM.

`Cc1nsc(Nc2cnc3ccccc3n2)c1C(=O)Nc1ccc(F)c(C(N)=O)c1` [Example 202, N-(3-carbamoyl-4-fluorophenyl)-3-methyl-5-(quinoxalin-2-ylamino)-1,2-thiazole-4-carboxamide] gave an IC50 [1] of 130 nM and an IC50 [2] of 220 nM.

`Cc1nsc(Nc2ccc(C#N)cn2)c1C(=O)Nc1ccc(F)c(C(N)=O)c1` [Example 203, N-(3-carbamoyl-4-fluorophenyl)-5-[(5-cyanopyridin-2-yl)amino]-3-methyl-1,2-thiazole-4-carboxamide] was tested, and the IC50 [1] was 8500 nM and the IC50 [2] was 1300 nM.

`Cc1nsc(Nc2cncc(C(F)(F)F)n2)c1C(=O)Nc1ccc(F)c(C(N)=O)c1` [Example 204, N-(3-carbamoyl-4-fluorophenyl)-3-methyl-5-{[6-(trifluoromethyl)pyrazin-2-yl]amino}-1,2-thiazole-4-carboxamide] gave an IC50 [1] of 450 nM and an IC50 [2] of 490 nM.

`CC(=O)Nc1cc(NC(=O)c2c(C)nsc2Nc2cnccn2)ccc1F` [Example 205, N-(3-acetamido-4-fluorophenyl)-3-methyl-5-(pyrazin-2-ylamino)-1,2-thiazole-4-carboxamide] showed an IC50 [1] of 20000 nM and an IC50 [2] of 6000 nM.

`CC(=O)Nc1cc(NC(=O)c2c(C)nsc2Nc2cnc(C(F)(F)F)cn2)ccc1F` [Example 206, N-(3-acetamido-4-fluorophenyl)-3-methyl-5-{[5-(trifluoromethyl)pyrazin-2-yl]amino}-1,2-thiazole-4-carboxamide] was tested, and the IC50 [1] was 75 nM and the IC50 [2] was 110 nM.

Work on `CNC(=O)c1ccc(NC(=O)c2c(C)nsc2Nc2cnc3ccccc3n2)cc1F` [Example 207, N-[3-fluoro-4-(methylcarbamoyl)phenyl]-3-methyl-5-(quinoxalin-2-ylamino)-1,2-thiazole-4-carboxamide] yielded an IC50 [1] of 76 nM and an IC50 [2] of 200 nM.

Compound `CNC(=O)c1ccc(NC(=O)c2c(C)nsc2Nc2ccc(C#N)cn2)cc1F` [Example 208, 5-[(5-cyanopyridin-2-yl)amino]-N-[3-fluoro-4-(methylcarbamoyl)phenyl]-3-methyl-1,2-thiazole-4-carboxamide] has an IC50 [1] of 41 nM and an IC50 [2] of 330 nM.

For `Cc1nsc(Nc2cncc(C(F)(F)F)n2)c1C(=O)Nc1ccc(OCCCN)nc1` [Example 209, N-[6-(3-aminopropoxy)pyridin-3-yl]-3-methyl-5-{[6-(trifluoromethyl)pyrazin-2-yl]amino}-1,2-thiazole-4-carboxamide], the IC50 [1] was 2300 nM and the IC50 [2] was 2100 nM.

Compound `CNS(=O)(=O)c1ccc(NC(=O)c2c(C)nsc2Nc2cc(C#N)ccn2)cc1` [Example 210, 5-[(4-cyanopyridin-2-yl)amino]-3-methyl-N-[4-(methylsulfamoyl)phenyl]-1,2-thiazole-4-carboxamide] has an IC50 [1] of 7700 nM and an IC50 [2] of 3200 nM.

`CNS(=O)(=O)c1ccc(NC(=O)c2c(C)nsc2Nc2cncc(C(F)(F)F)n2)cc1` [Example 211, 3-methyl-N-[4-(methylsulfamoyl)phenyl]-5-{[6-(trifluoromethyl)pyrazin-2-yl]amino}-1,2-thiazole-4-carboxamide] was tested, and the IC50 [1] was 47 nM and the IC50 [2] was 96 nM.

For `CNS(=O)(=O)c1ccc(NC(=O)c2c(C)nsc2Nc2cnc(C(F)(F)F)cn2)cc1` [Example 212, 3-methyl-N-[4-(methylsulfamoyl)phenyl]-5-{[5-(trifluoromethyl)pyrazin-2-yl]amino}-1,2-thiazole-4-carboxamide], the IC50 [1] was 4100 nM and the IC50 [2] was 2000 nM.
